Assays:
[1] = molecular target: G protein-coupled receptor kinase 4 (Homo sapiens) (UniProt P32298); conditions: Compound concentration 1000.0 nM
[2] = molecular target: Ankyrin repeat and protein kinase domain-containing protein 1 (Homo sapiens) (UniProt Q8NFD2); conditions: Compound concentration 1000.0 nM
[3] = molecular target: Angiopoietin-1 receptor (Homo sapiens) (UniProt Q02763); conditions: Compound concentration 1000.0 nM
[4] = molecular target: 1-phosphatidylinositol 3-phosphate 5-kinase (Homo sapiens) (UniProt Q9Y2I7); conditions: Compound concentration 1000.0 nM
[5] = molecular target: Serine/threonine-protein kinase MRCK beta (Homo sapiens) (UniProt Q9Y5S2); conditions: Compound concentration 1000.0 nM
[6] = molecular target: Serine/threonine-protein kinase PAK 1 (Homo sapiens) (UniProt Q13153); conditions: Compound concentration 1000.0 nM
[7] = molecular target: Mitogen-activated protein kinase kinase kinase 14 (Homo sapiens) (UniProt Q99558); conditions: Compound concentration 1000.0 nM
[8] = molecular target: Mitotic checkpoint serine/threonine-protein kinase BUB1 (Homo sapiens) (UniProt O43683); conditions: Compound concentration 1000.0 nM
[9] = molecular target: Serine/threonine-protein kinase OSR1 (Homo sapiens) (UniProt O95747); conditions: Compound concentration 1000.0 nM
[10] = molecular target: Muscarinic acetylcholine receptor M2 (Homo sapiens) (UniProt P08172); conditions: Compound concentration 10.0 uM
[11] = molecular target: Dual specificity mitogen-activated protein kinase kinase 4 (Homo sapiens) (UniProt P45985); conditions: Compound concentration 1000.0 nM
[12] = molecular target: Serine/threonine-protein kinase PAK 4 (Homo sapiens) (UniProt O96013); conditions: Compound concentration 1000.0 nM
[13] = system: Mast/stem cell growth factor receptor Kit (Homo sapiens), P10721 [L576P]; conditions: Compound concentration 1000.0 nM
[14] = molecular target: Phosphatidylinositol 4,5-bisphosphate 3-kinase catalytic subunit alpha isoform (Homo sapiens) (UniProt P42336); conditions: Compound concentration 1000.0 nM
[15] = system: Receptor-type tyrosine-protein kinase FLT3 (Homo sapiens), P36888 [R834Q]; conditions: Compound concentration 1000.0 nM
[16] = molecular target: Testis-specific serine/threonine-protein kinase 1 (Homo sapiens) (UniProt Q9BXA7); conditions: Compound concentration 1000.0 nM
[17] = molecular target: Calcium/calmodulin-dependent protein kinase type 1D (Homo sapiens) (UniProt Q8IU85); conditions: Compound concentration 1000.0 nM
[18] = molecular target: Ribosomal protein S6 kinase alpha-2 (Homo sapiens) (UniProt Q15349); conditions: Compound concentration 1000.0 nM
[19] = molecular target: Serine/threonine-protein kinase N2 (Homo sapiens) (UniProt Q16513); conditions: Compound concentration 1000.0 nM
[20] = molecular target: Mitogen-activated protein kinase 4 (Homo sapiens) (UniProt P31152); conditions: Compound concentration 1000.0 nM
[21] = molecular target: Serine/threonine-protein kinase Sgk1 (Homo sapiens) (UniProt O00141); conditions: Compound concentration 1000.0 nM
[22] = molecular target: Serine/threonine-protein kinase SBK1 (Homo sapiens) (UniProt Q52WX2); conditions: Compound concentration 1000.0 nM
[23] = molecular target: Serine/threonine-protein kinase 17B (Homo sapiens) (UniProt O94768); conditions: Compound concentration 1000.0 nM
[24] = molecular target: Cyclin-dependent kinase 19 (Homo sapiens) (UniProt Q9BWU1); conditions: Compound concentration 1000.0 nM
[25] = molecular target: Serine/threonine-protein kinase Nek11 (Homo sapiens) (UniProt Q8NG66); conditions: Compound concentration 1000.0 nM
[26] = system: Phosphatidylinositol 4,5-bisphosphate 3-kinase catalytic subunit alpha isoform (Homo sapiens), P42336 [C420R]; conditions: Compound concentration 1000.0 nM
[27] = molecular target: Tyrosine-protein kinase FRK (Homo sapiens) (UniProt P42685); conditions: Compound concentration 1000.0 nM
[28] = molecular target: Ephrin type-A receptor 2 (Homo sapiens) (UniProt P29317); conditions: Compound concentration 1000.0 nM
[29] = molecular target: Serine/threonine-protein kinase Nek2 (Homo sapiens) (UniProt P51955); conditions: Compound concentration 1000.0 nM
[30] = molecular target: Beta-adrenergic receptor kinase 1 (Homo sapiens) (UniProt P25098); conditions: Compound concentration 1000.0 nM
[31] = molecular target: Ephrin type-B receptor 2 (Homo sapiens) (UniProt P29323); conditions: Compound concentration 1000.0 nM
[32] = molecular target: Mitogen-activated protein kinase 14 (Homo sapiens) (UniProt Q16539); conditions: Compound concentration 1000.0 nM
[33] = molecular target: Myosin-IIIb (Homo sapiens) (UniProt Q8WXR4); conditions: Compound concentration 1000.0 nM
[34] = molecular target: Aurora kinase C (Homo sapiens) (UniProt Q9UQB9); conditions: Compound concentration 1000.0 nM
[35] = molecular target: Bone morphogenetic protein receptor type-1B (Homo sapiens) (UniProt O00238); conditions: Compound concentration 1000.0 nM
[36] = molecular target: Protein kinase C epsilon type (Homo sapiens) (UniProt Q02156); conditions: Compound concentration 1000.0 nM
[37] = molecular target: Sodium-dependent serotonin transporter (Homo sapiens) (UniProt P31645); conditions: Compound concentration 10.0 uM
[38] = molecular target: Mitogen-activated protein kinase kinase kinase 2 (Homo sapiens) (UniProt Q9Y2U5); conditions: Compound concentration 1000.0 nM
[39] = molecular target: Tyrosine-protein kinase Fer (Homo sapiens) (UniProt P16591); conditions: Compound concentration 1000.0 nM
[40] = molecular target: Activated CDC42 kinase 1 (Homo sapiens) (UniProt Q07912); conditions: Compound concentration 1000.0 nM
[41] = system: Phosphatidylinositol 4,5-bisphosphate 3-kinase catalytic subunit alpha isoform (Homo sapiens), P42336 [I800L]; conditions: Compound concentration 1000.0 nM
[42] = molecular target: Myosin light chain kinase, smooth muscle (Homo sapiens) (UniProt Q15746); conditions: Compound concentration 1000.0 nM
[43] = molecular target: Mast/stem cell growth factor receptor Kit (Homo sapiens) (UniProt P10721); conditions: Compound concentration 1000.0 nM
[44] = molecular target: Atypical kinase COQ8A, mitochondrial (Homo sapiens) (UniProt Q8NI60); conditions: Compound concentration 1000.0 nM
[45] = molecular target: Serine/threonine-protein kinase PLK1 (Homo sapiens) (UniProt P53350); conditions: Compound concentration 1000.0 nM
Chain of Serine/threonine-protein kinase PLK1 (Homo sapiens) (P53350 whole entry): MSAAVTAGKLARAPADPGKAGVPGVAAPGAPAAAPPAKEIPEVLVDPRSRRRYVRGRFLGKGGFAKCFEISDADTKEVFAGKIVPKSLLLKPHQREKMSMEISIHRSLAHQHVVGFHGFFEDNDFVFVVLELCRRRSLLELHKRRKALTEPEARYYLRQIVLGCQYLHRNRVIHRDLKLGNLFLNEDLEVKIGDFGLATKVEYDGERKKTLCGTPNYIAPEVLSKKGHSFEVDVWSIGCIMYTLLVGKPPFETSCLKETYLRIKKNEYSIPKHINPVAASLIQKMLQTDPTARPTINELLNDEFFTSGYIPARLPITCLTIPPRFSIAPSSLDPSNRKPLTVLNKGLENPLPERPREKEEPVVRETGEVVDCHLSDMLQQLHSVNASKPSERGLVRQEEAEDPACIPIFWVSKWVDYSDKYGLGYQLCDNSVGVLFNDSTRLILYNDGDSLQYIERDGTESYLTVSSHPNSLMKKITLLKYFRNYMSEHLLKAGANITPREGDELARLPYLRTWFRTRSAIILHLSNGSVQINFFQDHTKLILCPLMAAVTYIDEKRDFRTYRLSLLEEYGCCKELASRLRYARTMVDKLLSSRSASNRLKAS

Chain of Activated CDC42 kinase 1 (Homo sapiens) (Q07912 whole entry, looked up, canonical isoform): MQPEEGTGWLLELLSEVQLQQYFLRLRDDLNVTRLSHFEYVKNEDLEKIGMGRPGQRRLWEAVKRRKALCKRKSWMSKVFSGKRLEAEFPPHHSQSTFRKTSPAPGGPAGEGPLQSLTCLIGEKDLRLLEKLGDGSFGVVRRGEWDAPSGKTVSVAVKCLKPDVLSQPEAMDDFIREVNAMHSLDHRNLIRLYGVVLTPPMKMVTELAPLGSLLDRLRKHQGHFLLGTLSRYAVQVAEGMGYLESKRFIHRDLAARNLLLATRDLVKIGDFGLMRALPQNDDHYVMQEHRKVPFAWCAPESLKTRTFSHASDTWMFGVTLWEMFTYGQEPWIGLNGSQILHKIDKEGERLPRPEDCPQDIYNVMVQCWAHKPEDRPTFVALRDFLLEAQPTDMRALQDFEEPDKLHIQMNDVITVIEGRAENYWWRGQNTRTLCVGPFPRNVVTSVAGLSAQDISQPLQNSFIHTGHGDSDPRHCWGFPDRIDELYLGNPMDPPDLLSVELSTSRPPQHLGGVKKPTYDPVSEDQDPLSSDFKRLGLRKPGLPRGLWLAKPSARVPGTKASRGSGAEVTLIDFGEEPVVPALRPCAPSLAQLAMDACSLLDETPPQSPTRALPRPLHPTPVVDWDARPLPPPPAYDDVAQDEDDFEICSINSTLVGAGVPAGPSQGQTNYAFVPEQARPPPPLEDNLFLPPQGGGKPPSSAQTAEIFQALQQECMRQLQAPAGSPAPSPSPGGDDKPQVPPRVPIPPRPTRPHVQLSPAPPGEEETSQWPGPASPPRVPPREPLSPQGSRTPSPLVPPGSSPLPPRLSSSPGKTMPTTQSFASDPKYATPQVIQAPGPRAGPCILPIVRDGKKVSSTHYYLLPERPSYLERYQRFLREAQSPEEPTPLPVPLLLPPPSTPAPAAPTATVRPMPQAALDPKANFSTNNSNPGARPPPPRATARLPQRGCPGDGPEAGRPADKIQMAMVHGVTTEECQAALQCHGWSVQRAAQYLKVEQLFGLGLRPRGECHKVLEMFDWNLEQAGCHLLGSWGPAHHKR
Chain of Serine/threonine-protein kinase PAK 1 (Homo sapiens) (Q13153 whole entry): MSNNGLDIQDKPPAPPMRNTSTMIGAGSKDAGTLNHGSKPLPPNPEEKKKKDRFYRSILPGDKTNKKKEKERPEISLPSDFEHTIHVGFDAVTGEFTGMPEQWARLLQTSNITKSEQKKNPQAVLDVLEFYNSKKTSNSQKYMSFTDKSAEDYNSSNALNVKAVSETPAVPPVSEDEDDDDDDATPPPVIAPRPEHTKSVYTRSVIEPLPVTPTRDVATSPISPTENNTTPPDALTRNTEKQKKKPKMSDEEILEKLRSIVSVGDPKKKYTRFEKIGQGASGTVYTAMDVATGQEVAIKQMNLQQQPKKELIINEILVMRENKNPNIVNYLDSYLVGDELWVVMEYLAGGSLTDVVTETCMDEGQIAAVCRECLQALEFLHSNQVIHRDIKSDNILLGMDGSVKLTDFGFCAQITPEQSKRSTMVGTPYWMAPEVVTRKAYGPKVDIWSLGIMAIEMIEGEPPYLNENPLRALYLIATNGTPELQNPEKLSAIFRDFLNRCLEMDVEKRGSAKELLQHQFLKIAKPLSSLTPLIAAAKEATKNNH
Chain of Aurora kinase C (Homo sapiens) (Q9UQB9 whole entry): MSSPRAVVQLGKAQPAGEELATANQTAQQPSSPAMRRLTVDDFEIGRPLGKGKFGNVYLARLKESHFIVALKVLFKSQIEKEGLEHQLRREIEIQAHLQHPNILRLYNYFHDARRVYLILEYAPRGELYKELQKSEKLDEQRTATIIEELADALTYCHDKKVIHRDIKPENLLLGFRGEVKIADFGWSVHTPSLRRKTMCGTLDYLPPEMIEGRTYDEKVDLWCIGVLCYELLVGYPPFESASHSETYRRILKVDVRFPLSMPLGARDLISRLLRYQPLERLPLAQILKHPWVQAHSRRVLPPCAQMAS
Chain of Serine/threonine-protein kinase N2 (Homo sapiens) (Q16513 whole entry, looked up): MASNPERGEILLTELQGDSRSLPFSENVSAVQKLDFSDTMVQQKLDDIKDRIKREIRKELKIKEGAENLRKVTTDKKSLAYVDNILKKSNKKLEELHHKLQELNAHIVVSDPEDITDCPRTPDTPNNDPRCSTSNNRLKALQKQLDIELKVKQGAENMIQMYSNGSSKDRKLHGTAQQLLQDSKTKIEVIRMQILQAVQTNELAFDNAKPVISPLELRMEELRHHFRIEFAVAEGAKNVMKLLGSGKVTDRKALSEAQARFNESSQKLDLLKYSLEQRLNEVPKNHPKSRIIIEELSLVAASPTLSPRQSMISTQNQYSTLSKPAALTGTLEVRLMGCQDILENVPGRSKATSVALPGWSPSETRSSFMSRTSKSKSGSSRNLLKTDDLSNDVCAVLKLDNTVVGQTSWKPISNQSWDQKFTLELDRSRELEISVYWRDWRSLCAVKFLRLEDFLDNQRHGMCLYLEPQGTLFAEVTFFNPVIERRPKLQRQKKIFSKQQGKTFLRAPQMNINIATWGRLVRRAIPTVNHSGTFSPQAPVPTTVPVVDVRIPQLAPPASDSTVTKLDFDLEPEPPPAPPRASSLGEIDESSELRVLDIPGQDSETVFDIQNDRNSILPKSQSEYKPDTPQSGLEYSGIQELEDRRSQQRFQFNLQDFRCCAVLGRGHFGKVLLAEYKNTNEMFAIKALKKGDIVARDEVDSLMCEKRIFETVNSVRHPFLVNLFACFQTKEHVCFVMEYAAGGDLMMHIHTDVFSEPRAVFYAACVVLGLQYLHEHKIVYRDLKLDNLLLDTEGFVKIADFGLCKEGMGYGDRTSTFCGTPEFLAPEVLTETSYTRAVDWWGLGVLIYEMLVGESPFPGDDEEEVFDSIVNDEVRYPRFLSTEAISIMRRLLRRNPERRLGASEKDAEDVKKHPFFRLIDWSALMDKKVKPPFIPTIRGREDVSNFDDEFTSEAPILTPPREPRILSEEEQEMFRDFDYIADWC
Chain of Tyrosine-protein kinase Fer (Homo sapiens) (P16591 whole entry, looked up): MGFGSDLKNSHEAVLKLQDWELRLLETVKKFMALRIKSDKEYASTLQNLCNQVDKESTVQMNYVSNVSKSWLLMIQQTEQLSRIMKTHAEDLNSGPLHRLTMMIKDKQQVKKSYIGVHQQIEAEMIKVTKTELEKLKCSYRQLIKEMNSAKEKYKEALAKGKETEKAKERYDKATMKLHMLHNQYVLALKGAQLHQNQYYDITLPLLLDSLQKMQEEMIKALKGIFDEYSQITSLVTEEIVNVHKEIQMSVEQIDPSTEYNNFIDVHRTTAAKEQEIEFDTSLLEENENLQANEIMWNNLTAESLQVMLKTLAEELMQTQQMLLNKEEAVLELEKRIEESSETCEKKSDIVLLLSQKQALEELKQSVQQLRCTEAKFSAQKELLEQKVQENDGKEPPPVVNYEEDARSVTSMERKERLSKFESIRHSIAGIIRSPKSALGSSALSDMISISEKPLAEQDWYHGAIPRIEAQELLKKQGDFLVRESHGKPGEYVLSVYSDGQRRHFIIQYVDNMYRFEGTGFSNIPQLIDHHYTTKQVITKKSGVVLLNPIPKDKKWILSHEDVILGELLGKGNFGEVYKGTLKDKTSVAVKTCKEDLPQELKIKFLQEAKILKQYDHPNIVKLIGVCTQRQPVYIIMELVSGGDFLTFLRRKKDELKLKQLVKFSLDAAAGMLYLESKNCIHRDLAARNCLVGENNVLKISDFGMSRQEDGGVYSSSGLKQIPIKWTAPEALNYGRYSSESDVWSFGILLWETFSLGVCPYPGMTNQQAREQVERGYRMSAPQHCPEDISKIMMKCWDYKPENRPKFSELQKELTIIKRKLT
Chain of Serine/threonine-protein kinase 17B (Homo sapiens) (O94768 whole entry): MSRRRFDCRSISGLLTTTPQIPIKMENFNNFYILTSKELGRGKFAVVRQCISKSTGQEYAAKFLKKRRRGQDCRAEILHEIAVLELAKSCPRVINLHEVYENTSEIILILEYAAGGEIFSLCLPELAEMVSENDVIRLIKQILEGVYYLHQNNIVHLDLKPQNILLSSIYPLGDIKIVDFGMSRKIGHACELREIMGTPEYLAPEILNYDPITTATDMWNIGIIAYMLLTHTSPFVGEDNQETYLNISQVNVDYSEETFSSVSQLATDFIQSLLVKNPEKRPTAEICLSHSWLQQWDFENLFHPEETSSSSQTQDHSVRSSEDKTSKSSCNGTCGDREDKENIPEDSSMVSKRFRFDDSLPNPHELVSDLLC
Chain of Mitogen-activated protein kinase 14 (Homo sapiens) (Q16539 whole entry): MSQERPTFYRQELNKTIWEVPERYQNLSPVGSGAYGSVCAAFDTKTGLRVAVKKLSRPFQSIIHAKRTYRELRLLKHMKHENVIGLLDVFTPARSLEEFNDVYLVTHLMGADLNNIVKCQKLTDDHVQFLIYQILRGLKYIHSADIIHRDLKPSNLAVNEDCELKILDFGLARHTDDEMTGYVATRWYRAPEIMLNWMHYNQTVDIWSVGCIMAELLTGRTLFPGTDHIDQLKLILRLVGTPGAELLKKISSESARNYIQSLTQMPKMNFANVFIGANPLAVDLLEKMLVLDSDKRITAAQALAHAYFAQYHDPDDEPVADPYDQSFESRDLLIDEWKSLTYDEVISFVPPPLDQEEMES

N#Cc1ccc(Nc2ccc3[nH]c(=O)[nH]c3c2)c(Cl)c1
inactive: residual activity [1] 100% | residual activity [2] 100% | residual activity [3] 85% | residual activity [4] 82% | residual activity [5] 100% | residual activity [6] 85% | residual activity [7] 100% | residual activity [8] 100% | residual activity [9] 75% | inhibition [10] 3.51% | residual activity [11] 100% | residual activity [12] 92% | residual activity [13] 89% | residual activity [14] 77% | residual activity [15] 90% | residual activity [16] 56% | residual activity [17] 92% | residual activity [18] 100% | residual activity [19] 76% | residual activity [20] 100% | residual activity [21] 100% | residual activity [22] 93% | residual activity [23] 100% | residual activity [24] 77% | residual activity [25] 100% | residual activity [26] 90% | residual activity [27] 73% | residual activity [28] 84% | residual activity [29] 93% | residual activity [30] 100% | residual activity [31] 70% | residual activity [32] 93% | residual activity [33] 100% | residual activity [34] 100% | residual activity [35] 100% | residual activity [36] 100% | inhibition [37] 21.1% | residual activity [38] 100% | residual activity [39] 100% | residual activity [40] 90% | residual activity [41] 77% | residual activity [42] 96% | residual activity [43] 100% | residual activity [44] 100% | residual activity [45] 100%

O=C1CCc2cc(Nc3cc(OC4CCOCC4)c([N+](=O)[O-])cc3Cl)ccc2N1
inactive: residual activity [1] 100% | residual activity [2] 82% | residual activity [3] 76% | residual activity [4] 83% | residual activity [5] 90% | residual activity [6] 88% | residual activity [7] 81% | residual activity [8] 89% | residual activity [9] 83% | inhibition [10] 5.41% | residual activity [11] 100% | residual activity [12] 100% | residual activity [13] 100% | residual activity [14] 79% | residual activity [15] 87% | residual activity [16] 85% | residual activity [17] 100% | residual activity [18] 100% | residual activity [19] 100% | residual activity [20] 100% | residual activity [21] 100% | residual activity [22] 97% | residual activity [23] 100% | residual activity [24] 72% | residual activity [25] 100% | residual activity [26] 97% | residual activity [27] 73% | residual activity [28] 75% | residual activity [29] 95% | residual activity [30] 87% | residual activity [31] 96% | residual activity [32] 100% | residual activity [33] 97% | residual activity [34] 100% | residual activity [35] 87% | residual activity [36] 93% | inhibition [37] 23.5% | residual activity [38] 100% | residual activity [39] 100% | residual activity [40] 100% | residual activity [41] 63% | residual activity [42] 94% | residual activity [43] 99% | residual activity [44] 100% | residual activity [45] 100%

Reference: ChEMBL document CHEMBL4507304, “Data for DCP probe TP-021” (2021)
